US11931341B2, “Compositions and methods for the treatment and prevention of muscular dystrophy” (University of Iowa Research Foundation, priority 2018, dated 2024)

Key:
Type in all cases: in vivo
[1] = system: δSgcd−/− mouse model; experiment: Autonomic function by radiotelemetry in δSgcd−/− mouse model of limb-girdle muscular dystrophy; settings: Sgcd−/− mice, C21 0.03 mg/kg/day SC osmotic minipump for eight weeks
Procedure: (§1) The effect of C21 was evaluated in a δSgcd−/− mouse model, which is a genetically modified model to imitate limb-girdle muscular dystrophy (LGMD). At 3 weeks of age, δSgcd−/− mice and control mice were administrated C21 (0.03 mg/kg/day, osmotic minipump, SC) or vehicle for eight weeks. Data from conscious mice were collected during the last week of treatment. At the end of the experiment, tissues were harvested for histopathology and molecular gene expression measurements.
(§2) A radiotelemetry probe (PC10-DSI) that enabled measurement of arterial blood pressure (BP), heart rate (HR) and locomotor activity was inserted into the thoracic aorta through the left common carotid artery under 2% isoflurane anesthesia when the mice were 9 weeks of age. When the mice reached 11-12 weeks of age, changes in BP, HR, and locomotor activity were measured over a minimum of 24 hours at a sampling rate of 500 Hz. In addition, BP was continuously recorded at a high sampling frequency of 2000 Hz for 1-2 hours, to collect data for assessment of spontaneous baroreflex sensitivity (sequence technique), sympathetic tone (HR changes with propranolol) and vagal tone (HR changes with methylatropine).

[2] = system: δSgcd−/− mouse model; experiment: Spontaneous locomotor activity by radiotelemetry in δSgcd−/− mouse model; settings: sgcd−/− mice, C21 0.03 mg/kg/day SC osmotic minipump for eight weeks (FIG. 2)
Procedure: as §1, §2

[3] = system: δSgcd−/− mouse model; experiment: Cardiac function by echocardiography in δSgcd−/− mouse model; settings: older-aged sgcd−/− mice, echocardiography (FIG. 3)
Procedure: as §1, with “At 3 weeks of age, δSgcd−/− mice and control mice were administrated C21 (0.03 mg/kg/day, osmotic minipump, SC) or vehicle for eight weeks.” left out
Echocardiography was performed in telemeter-implanted mice using Philips Sonos 5500 clinical imager in mice sedated with midazolam.

CCCCOC(=O)NS(=O)(=O)c1sc(CC(C)C)cc1-c1ccc(Cn2ccnc2)cc1 [Compound C21, N-butyloxycarbonyl-3-(4-imidazol-1-ylmethylphenyl)-5-iso-butylthiophene-2-sulfonamide]
baroreflex sensitivity ([1]; compared to sgcd−/− placebo treated mice (FIG. 1)): increase
vagal tone ([1]; compared to sgcd−/− placebo treated mice, HR changes with methylatropine (FIG. 1)): increase
sympathetic tone ([1]; compared to sgcd−/− placebo treated mice, HR changes with propranolol (FIG. 1)): decreased
spontaneous locomotor activity [2]: increased the spontaneous locomotor activity to levels comparative to control animals
cardiac function measured as end diastolic volume, end systolic volume and ejection fraction [3]: improved the cardiac function
